In ChEMBL document CHEMBL5543061, “Recent advances of antitumor leading compound Erianin: Mechanisms of action and structural modification” (Eur J Med Chem, 2023) one finds GI50, IC50 and Activity data, which are given here for 46 compounds.

Test [1] has as its system HCT-116. The experiment in a line: Growth inhibition of human HCT-116 cells measured for 48 hrs by SRB assay. Format: functional.
Test [2] has as its system HCT-116. The experiment in a line: Growth inhibition of human HCT-116 cells. Format: functional.
Test [3] concerns HCT-116. The experiment in a line: Cytotoxicity against human HCT-116 cells assessed as reduction in cell viability incubated for 72 hrs by MTS assay. It counts as functional, cell-based. The note with it: HCT-116, 72 h. A general note: Formazan colour is commonly taken as a measure of viable cells.
For a further test, the system named is MIA PaCa-2. In words: Cytotoxicity against human MIA PaCa-2 cells assessed as reduction in cell viability incubated for 72 hrs by MTS assay. The note with it: MIA PaCa-2, 72 h. It counts as functional, cell-based.
In a further test the test system is JIMT-1. In words: Antiproliferative activity against human JIMT-1 cells assessed as reduction in cell viability incubated for 72 hrs by MTS assay. It counts as functional, cell-based. The settings on record: JIMT-1, 72 h.
Another test concerns A2780. In words: Cytotoxicity against human A2780 cells assessed as reduction in cell viability incubated for 72 hrs by MTS assay. Format: functional, cell-based. The note with it: A2780, 72 h.
A further test relates to K562. In words: Cytotoxicity against human K562 cells assessed as reduction in cell viability incubated for 72 hrs by MTS assay. It counts as functional, cell-based. The settings on record: K562, 72 h.
In the next test the test system is A2780cisR. The experiment in a line: Antiproliferative activity against human cisplatin-resistant A2780 cells assessed as reduction in cell viability incubated for 72 hrs by MTS assay. It counts as functional, cell-based.
In test [4] the test system is HeLa. The experiment in a line: Cytotoxicity against human HeLa cells assessed as reduction in cell growth incubated for 72 hrs by MTT assay. Format: functional, cell-based.
The test system of test [5] is HepG2. The experiment in a line: Antiproliferative activity against human HepG2 cells assessed as inhibition of cell growth relative to control. Format: functional. Details: scale not given: the % may be the effect or the level left.
For test [6], the system named is HepG2. The experiment in a line: Antiproliferative activity against human HepG2 cells assessed as reduction in cell growth. Format: functional, cell-based.
A further test concerns HL-60. The experiment in a line: Cytotoxicity against human HL-60 cells assessed as reduction in cell viability incubated for 48 hrs by MTT assay. It counts as functional, cell-based. The note with it: HL-60, 48 h.
Test [7] has as its system HeLa. In words: Antiproliferative activity against human HeLa cells assessed as reduction in cell viability by MTT assay. Format: functional, cell-based.
The subject of test [8] is HeLa. The experiment in a line: Cytotoxicity against human HeLa cells assessed as reduction in cell viability after 72 hrs by MTS assay. It counts as functional, cell-based.
For test [9], the system named is HepG2. The experiment in a line: Cytotoxicity against human HepG2 cells. It counts as functional, cell-based.
Test [10] concerns HeLa. In words: Antiproliferative activity against human HeLa cells assessed cell growth reduction incubated for 48 hrs by MTT assay. It counts as functional, cell-based.
For test [11], the system named is HepG2. The experiment in a line: Anticancer activity against human HepG2 cells assessed as reduction in cell viability. It counts as functional, cell-based.
A further test relates to SW480. The experiment in a line: Cytotoxicity against human SW480 cells assessed as reduction in cell viability incubated for 72 hrs by celltiter glo assay. It counts as functional, cell-based. The settings on record: SW480, 72 h.

Turning to `COc1ccc(Cc2cc(OC)c(OC)c(OC)c2)cc1O`, the GI50 (as a rule, the concentration at which growth is held to half of that of the control) in the test with HCT-116 [1] was 6000 nM.

For the compound `COc1cc(C(C)c2ccc3c(ccn3C)c2)cc(OC)c1OC` (stereo not drawn), it took 29 nM to inhibit growth in the test on HCT-116 [2] by half (GI50).

In the case of `COc1ccc(C(c2cc(OC)c(OC)c(OC)c2)C(F)F)cc1O` (stereo not drawn), the GI50 in the test on HCT-116 [1] and with HCT-116 [2] was 30 nM throughout. As for `CN(c1ccc2c(ccn2C)c1)c1cc(C(F)(F)F)nc2ccccc12`, the IC50 (usually the point on the concentration scale where inhibition reaches its midpoint) with HCT-116 [3] was 3 nM.

With `Cc1cc(N(C)c2ccc3c(c2)c2ccccc2n3C)c2ccccc2n1`, the IC50 in the test on MIA PaCa-2 amounted to 0.28 nM; with JIMT-1, 0.28 nM; in the test on A2780 it was 0.28 nM; in the test with K562, 0.28 nM; in the test on A2780cisR it was 0.24 nM.

For `CN(c1ccc2c(c1)c1ccccc1n2C)c1cc(Cl)nc2ccccc12`, the IC50 with HCT-116 [3] was 16 nM. Regarding `COc1ccc(N(C)c2cc(C)nc3ccccc23)nc1N`, the half-maximal inhibitory concentration (IC50) with HCT-116 [3] was determined as 1 nM. Consider `CN(c1ccc2c(c1)c1ccccc1n2C)c1nc(Cl)nc2ccccc12`, for which the IC50 in the test with HCT-116 [3] turned out to be 1 nM. On the same count and under the same terms, the result for `Cc1nc(N(C)c2ccc3c(c2)c2ccccc2n3C)c2ccccc2n1` reads 2 nM; that for `COc1cccc2c(N(C)c3ccc4c(c3)c3ccccc3n4C)cc(C)nc12`, 21 nM.

In the case of `Cc1cc(N(C)c2ccc3c(n2)OCCO3)c2ccccc2n1`, the IC50 came out at 20 nM with HCT-116 [3] and 0.28 nM in the test with A2780cisR. As for `COc1cc(CCc2ccc(OC(F)F)c(OP(=O)(O)O)c2)cc(OC)c1OC`, the IC50 in the test on HeLa [4] was 110 nM. As to `COc1ccc(C(C)c2cc(OC)c(OC)c(OC)c2)nc1` (stereo not drawn), the GI50 in the test on HCT-116 [2] was determined as 60 nM. As for `COc1cc(CCc2ccc(OCCF)c(O)c2)cc(OC)c1OC`, the Activity in the test with HepG2 [5] amounted to 80.94%. The IC50 with HepG2 [6] amounted to 72.8 nM. `COc1cc(CCc2ccc(OC(=O)CCn3cc(F)c(=O)[nH]c3=O)c(O)c2)cc(OC)c1OC`: in the test on HepG2 [6], the IC50 is above 500 nM. On to `COc1ccc(CCc2cc(OC)c(OC)c(OC)c2)cc1OC(=O)CCC(=O)Oc1cc(CCc2cc(OC)c(OC)c(OC)c2)ccc1OC`, for which the IC50 in the test on HL-60 was 82 nM. Compound `CCOc1cc(C(C)c2ccc(OC)c(N)c2)ccc1OC` (stereo not drawn) came in with a GI50 with HCT-116 [1] of 6000 nM. Turning to `COc1ccc(CCc2cc(OC)c(OC)c(OC)c2)cc1N`, the IC50 in the test with HeLa [7] was found to be 160 nM.

Consider `COc1ccc(CCc2cc(OC)c(OC)c(OC)c2)cc1OC(=O)CCCCCNC(=O)CCCC[C@@H]1SC[C@@H]2NC(=O)N[C@@H]21`, for which the IC50 in the test on HeLa [8] was found to be 26 nM. In the test with HepG2 [9], `COc1ccc(CCc2cc(OC)c(OC)c(OC)c2)cc1OC(=O)c1cncc(Cl)c1` came in with an IC50 of 32.4 nM.

As for `COc1cc(CCc2ccc(C(C)(F)F)cc2NC(=O)CN)cc(OC)c1OC`, the IC50 in the test with HeLa [10] was 50 nM.

`COc1ccc(C(C)c2cc(C)c(OC)c(OC)c2)cc1OP(=O)(O)O` (stereo not drawn): the GI50 in the test on HCT-116 [2] was 100 nM. Consider `COc1ccc(CCc2cc(OC)c(OC)c(OC)c2)cc1OC(=O)c1c[nH]c2ccccc12`, for which the IC50 in the test on HepG2 [11] was above 500 nM. Turning to `COc1cc(CCc2ccc(OC(F)F)c(O)c2)cc(OC)c1OC`, in the test on SW480, the IC50 is 180 nM. In the case of `COc1ccc(CCc2cc(OC)c(OC)c(OC)c2)cc1OC(=O)c1ccsc1`, the IC50 in the test with HepG2 [11] is above 500 nM. On to `COc1cc(OC)cc(C(C)c2ccc(OC)c(N)c2)c1` (stereo not drawn), for which, in the test with HCT-116 [1], halving of growth (GI50) required 300 nM. In the case of `COc1ccc(CCc2cc(OC)c(OC)c(OC)c2)cc1OC(=O)CCC(=O)O`, the IC50 in the test with HL-60 turned out to be 48 nM. Consider `COc1ccc(CCc2cc(OC)c(OC)c(OC)c2)cc1OC(=O)c1cncnc1`, for which the half-maximal inhibitory concentration (IC50) in the test with HepG2 [11] is above 500 nM. Regarding `CCOc1ccc(CCc2cc(OC)c(OC)c(OC)c2)cc1N`, the IC50 with HeLa [7] came to 200 nM.

Turning to `CCOc1ccc(CCc2cc(OC)c(OC)c(OC)c2)cc1O`, the IC50 in the test with HeLa [7] was determined as 110 nM. With `COc1ccc(CCc2cc(OC)c(OC)c(OC)c2)cc1OC(=O)c1cnc(C)nc1`, the IC50 with HepG2 [11] is above 500 nM. `COc1cc(CCc2ccc(OC(C)(F)F)cc2N)cc(OC)c1OC` yielded an IC50 with HeLa [10] of 460 nM. With `COc1ccc(CCc2cc(OC)c(OC)c(OC)c2)cc1OC(=O)c1cccnc1`, in the test with HepG2 [11], the IC50 was above 500 nM.

With `CN(c1ccc2c(ccn2C)n1)c1nc(Cl)nc2ccccc12`, the IC50 in the test on MIA PaCa-2, with JIMT-1, in the test on A2780 and in the test on K562 was 0.24 nM throughout. Consider `COc1ccc(C(C)c2cc(OC)c(OC)c(OC)c2)cc1N` (stereo not drawn), for which the figures for the concentration for 50% growth inhibition (GI50) in the test with HCT-116 [1] and with HCT-116 [2] were 28 nM and 60 nM, respectively.

As for `COc1ccc(C(CC#N)c2cc(OC)c(OC)c(OC)c2)cc1O` (stereo not drawn), the GI50 in the test on HCT-116 [1] and in the test on HCT-116 [2] was 50 nM each time. As for `COc1ccc(CCc2cc(OC)c(OC)c(OC)c2)cc1OC(=O)c1cscn1`, the IC50 in the test with HepG2 [11] is above 500 nM. Regarding `COc1cc(CCc2ccc(OC(C)(F)F)cc2[N+](=O)[O-])cc(OC)c1OC`, in the test on HeLa [10], the concentration for half-maximal inhibition (IC50) came to 130 nM. In the case of `COc1cc(CCc2ccc(OC(C)(F)F)cc2)cc(OC)c1OC`, in the test with HeLa [10], the IC50 was 110 nM. `CCCOc1ccc(CCc2cc(OC)c(OC)c(OC)c2)cc1O`: the IC50 in the test with HepG2 [6] is above 2000 nM. `COc1cc(CCc2ccc(OC(F)F)c(NC(=O)CN)c2)cc(OC)c1OC`: the IC50 in the test on HeLa [4] is 70 nM. Regarding `COc1ccc(CCc2cc(OC)c(OC)c(OC)c2)cc1OC(=O)c1ccoc1`, the IC50 in the test on HepG2 [11] is above 500 nM. Turning to `COc1ccc(CCc2cc(OC)c(OC)c(OC)c2)cc1OC(=O)c1ccnnc1`, in the test with HepG2 [11], the IC50 was above 500 nM. For the compound `COc1ccc(CCc2cc(OC)c(OC)c(OC)c2)cc1OC(=O)c1cncc(Br)c1`, the half-maximal inhibitory concentration (IC50) with HepG2 [9] amounted to 13.5 nM.

In the case of `COc1ccc(CCc2cc(OC)c(OC)c(OC)c2)cc1OC(=O)CCCC[C@H]1SC[C@H]2NC(=O)N[C@H]21`, in the test on HeLa [8], the IC50 amounted to 494 nM. On to `COc1ccc(/C=C\c2cc(OC)c(OC)c(OC)c2)cc1O` [COMBRETASTATIN A4], for which, in the test on SW480, the IC50 worked out at 270 nM.
